Source: publication PMC3568244 (Molecular and cellular endocrinology, 2012)
Where two headings read alike, the source gives them in different places.

What was measured:
Assay in all cases: spectral binding titration
[1] = molecular target: T1, CYP11A1 (Bos taurus, UniProt P00189)
T1 sequence (P00189 40-520): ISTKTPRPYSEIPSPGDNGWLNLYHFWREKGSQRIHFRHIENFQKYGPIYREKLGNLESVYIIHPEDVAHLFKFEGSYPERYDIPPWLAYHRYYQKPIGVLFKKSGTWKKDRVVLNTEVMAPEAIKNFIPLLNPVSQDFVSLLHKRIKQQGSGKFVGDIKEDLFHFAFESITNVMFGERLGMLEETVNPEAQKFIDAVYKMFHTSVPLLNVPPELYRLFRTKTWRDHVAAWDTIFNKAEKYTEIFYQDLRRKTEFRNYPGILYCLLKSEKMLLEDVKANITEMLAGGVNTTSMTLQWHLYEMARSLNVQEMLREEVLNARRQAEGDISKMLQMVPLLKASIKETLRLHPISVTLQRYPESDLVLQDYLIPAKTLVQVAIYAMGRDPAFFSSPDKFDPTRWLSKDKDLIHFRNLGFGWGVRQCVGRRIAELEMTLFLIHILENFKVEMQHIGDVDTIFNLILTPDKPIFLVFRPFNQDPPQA

[2] = molecular target: T1, CYP11A1; remark: listed apart in the source
[3] = molecular target: T1, CYP11A1; remark: listed apart in the source

Row | SMILES | Kd [1] [µM] | Kd [2] [µM] | further results
1 | CC(=O)N1CCN(c2ccc(OC[C@H]3CO[C@@](Cn4ccnc4)(c4ccc(Cl)cc4Cl)O3)cc2)CC1 (racemic) [Ketoconazole] | 1.5 |  | 
2 | NC(=NCc1ccc(Cl)cc1)SCCCc1cnc[nH]1 [Clobenpropit] |  | 18 | 
3 | Cc1cccc([C@H](C)c2cnc[nH]2)c1C [Dexmedetomidine] |  | 7 | 
4 | CC[C@@H]([C@H](C)O)n1ncn(-c2ccc(N3CCN(c4ccc(OC[C@@H]5CO[C@@](Cn6cncn6)(c6ccc(F)cc6F)C5)cc4)CC3)cc2)c1=O [Posaconazole] | 1 |  | 
5 | CC(C)CCC[C@@H](C)[C@H]1CC[C@H]2[C@@H]3CC=C4C[C@@H](O)CC[C@]4(C)[C@H]3CC[C@]12C [cholesterol] |  |  | Kd [3]: 0.2 µM
